Activity calls are given as the source filed them.
Columns and labels:
[1] = target: UDP-galactopyranose mutase (Mycobacterium tuberculosis, UniProt P9WIQ1); assay: Inhibitors of Mycobacterium tuberculosis UDP-galactopyranose mutase (UGM) enzyme Measured in Biochemical System Using Plate Reader - 2105-02_Inhibitor_Dose_CherryPick_Activity. [Related pubchem assays (depositor defined):AID504439]
[2] = target: 26S proteasome non-ATPase regulatory subunit 14 (Homo sapiens, UniProt O00487); assay: inhibition of proteasome subunit RPN11 – biochemical, fluorescence polarization, uHTS hits, confirmation (AID 602368); assay type: functional
26S proteasome non-ATPase regulatory subunit 14, sequence (O00487 whole entry): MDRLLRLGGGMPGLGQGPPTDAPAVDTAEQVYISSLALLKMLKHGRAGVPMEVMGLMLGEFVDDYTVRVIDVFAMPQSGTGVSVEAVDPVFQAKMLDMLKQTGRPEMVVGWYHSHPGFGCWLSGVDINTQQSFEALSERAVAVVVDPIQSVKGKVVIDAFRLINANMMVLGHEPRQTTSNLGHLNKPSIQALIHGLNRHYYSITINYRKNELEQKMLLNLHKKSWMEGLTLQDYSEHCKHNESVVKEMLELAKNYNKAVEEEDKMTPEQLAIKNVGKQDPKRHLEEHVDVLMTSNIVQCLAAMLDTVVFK

[3] = target: T1, Rac GTPase-activating protein 1 (Homo sapiens, UniProt Q9H0H5); assay: blockers of MgcRacGAP-driven Rac1 GTP hydrolysis – biochemical, ADP Hunter fluorescence, primary and confirmatory, confirmation (AID 624330); assay type: functional
T1 sequence (Q9H0H5 whole entry): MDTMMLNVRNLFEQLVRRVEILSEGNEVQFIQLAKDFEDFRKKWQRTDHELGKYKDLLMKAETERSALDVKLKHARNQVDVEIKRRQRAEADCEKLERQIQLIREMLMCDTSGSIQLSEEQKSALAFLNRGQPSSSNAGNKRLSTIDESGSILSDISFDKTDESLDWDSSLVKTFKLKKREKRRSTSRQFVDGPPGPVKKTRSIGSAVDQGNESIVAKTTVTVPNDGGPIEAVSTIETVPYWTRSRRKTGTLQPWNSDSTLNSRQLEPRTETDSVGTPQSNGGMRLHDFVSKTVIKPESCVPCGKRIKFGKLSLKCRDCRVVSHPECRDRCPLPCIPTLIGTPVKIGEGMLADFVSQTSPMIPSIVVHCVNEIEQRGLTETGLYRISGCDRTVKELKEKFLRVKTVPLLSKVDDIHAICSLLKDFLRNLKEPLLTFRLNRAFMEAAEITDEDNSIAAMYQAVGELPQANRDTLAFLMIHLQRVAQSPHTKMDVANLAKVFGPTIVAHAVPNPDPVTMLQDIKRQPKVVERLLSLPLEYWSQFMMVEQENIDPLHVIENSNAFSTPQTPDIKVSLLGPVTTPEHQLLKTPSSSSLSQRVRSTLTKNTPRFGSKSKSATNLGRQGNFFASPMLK

[4] = target: Intestinal-type alkaline phosphatase (Homo sapiens, UniProt P09923); assay: activation of human intestinal alkaline phosphatase – biochemical, dose response (AID 488873); assay type: functional
Intestinal-type alkaline phosphatase (Homo sapiens, UniProt P09923), sequence (P09923 whole entry): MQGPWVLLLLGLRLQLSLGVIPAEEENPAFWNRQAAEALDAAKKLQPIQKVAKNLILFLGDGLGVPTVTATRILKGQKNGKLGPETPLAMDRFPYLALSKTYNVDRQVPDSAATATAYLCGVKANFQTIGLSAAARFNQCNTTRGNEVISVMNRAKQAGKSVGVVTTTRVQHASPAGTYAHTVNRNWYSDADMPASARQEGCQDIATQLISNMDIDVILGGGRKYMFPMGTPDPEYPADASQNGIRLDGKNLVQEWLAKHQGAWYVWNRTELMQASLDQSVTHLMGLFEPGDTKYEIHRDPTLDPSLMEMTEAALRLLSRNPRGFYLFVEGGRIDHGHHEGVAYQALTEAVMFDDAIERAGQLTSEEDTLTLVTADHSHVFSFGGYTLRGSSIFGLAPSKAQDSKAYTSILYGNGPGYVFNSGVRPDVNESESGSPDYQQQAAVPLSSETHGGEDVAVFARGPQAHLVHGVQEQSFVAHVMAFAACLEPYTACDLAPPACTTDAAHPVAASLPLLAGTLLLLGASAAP

[5] = mitochondrial function rescue without frataxin homolog – Friedreich's ataxia, plus single-dose screen, dose response (AID 1465); assay type: functional;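 note: yeast depleted of Yfh1p frataxin homolog grown on glycerol needing respiration; WST-1 tetrazolium dye reduction as measure of cellular dehydrogenase metabolic activity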
[6] = target: 72 kDa type IV collagenase (Homo sapiens, UniProt P08253); assay: Dose Response validation of uHTS RPN11 inhibitor hits using a MMP-2 Fluorescence assay.; assay type: functional
72 kDa type IV collagenase, sequence (P08253 whole entry): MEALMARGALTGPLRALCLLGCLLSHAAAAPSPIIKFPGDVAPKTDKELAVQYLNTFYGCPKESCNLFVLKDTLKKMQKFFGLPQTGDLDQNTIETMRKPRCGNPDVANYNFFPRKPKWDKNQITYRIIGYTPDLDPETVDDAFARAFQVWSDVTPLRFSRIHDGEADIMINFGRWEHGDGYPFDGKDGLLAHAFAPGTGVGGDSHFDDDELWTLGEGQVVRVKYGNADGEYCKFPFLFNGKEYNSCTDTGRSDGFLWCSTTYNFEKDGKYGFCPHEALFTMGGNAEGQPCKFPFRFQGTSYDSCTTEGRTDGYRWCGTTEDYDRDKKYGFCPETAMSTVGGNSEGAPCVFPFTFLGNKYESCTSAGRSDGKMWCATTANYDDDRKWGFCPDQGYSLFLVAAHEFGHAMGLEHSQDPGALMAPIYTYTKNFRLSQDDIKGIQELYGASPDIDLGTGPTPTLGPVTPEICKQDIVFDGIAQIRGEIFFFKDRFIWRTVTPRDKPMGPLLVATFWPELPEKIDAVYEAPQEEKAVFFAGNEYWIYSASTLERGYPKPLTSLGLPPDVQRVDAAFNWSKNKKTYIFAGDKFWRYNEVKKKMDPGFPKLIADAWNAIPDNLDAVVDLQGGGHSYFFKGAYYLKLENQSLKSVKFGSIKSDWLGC

[7] = target: T2, Alkaline phosphatase, tissue-nonspecific isozyme (Homo sapiens, UniProt P05186); assay: activation of tissue-nonspecific alkaline phosphatase – biochemical, TNAP isozyme, mouse IAP uHTS hits, selectivity assay for mouse IAP activator project, dose response (AID 488880); assay type: functional
T2 sequence (P05186 whole entry): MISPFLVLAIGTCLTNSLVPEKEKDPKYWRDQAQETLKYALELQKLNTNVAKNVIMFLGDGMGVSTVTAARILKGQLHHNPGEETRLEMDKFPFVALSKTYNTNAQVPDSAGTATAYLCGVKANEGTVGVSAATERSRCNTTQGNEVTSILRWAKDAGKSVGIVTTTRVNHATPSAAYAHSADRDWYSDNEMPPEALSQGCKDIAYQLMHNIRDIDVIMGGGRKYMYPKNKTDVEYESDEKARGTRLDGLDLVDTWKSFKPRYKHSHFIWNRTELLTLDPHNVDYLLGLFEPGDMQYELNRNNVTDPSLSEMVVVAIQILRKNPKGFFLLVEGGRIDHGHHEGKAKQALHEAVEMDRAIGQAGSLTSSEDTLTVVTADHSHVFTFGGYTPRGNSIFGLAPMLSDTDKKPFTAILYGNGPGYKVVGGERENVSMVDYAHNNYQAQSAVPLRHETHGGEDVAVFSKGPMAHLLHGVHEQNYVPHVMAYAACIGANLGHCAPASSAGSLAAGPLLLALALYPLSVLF

Prothrombin = Prothrombin (Bos taurus, UniProt P00735); assay: thrombin protease inhibitors – biochemical, fluorescence polarization, uHTS hits, dose response (AID 602369); assay type: functional
[8] = target: Intestinal-type alkaline phosphatase (Mus musculus, UniProt P24822); assay: mouse intestinal alkaline phosphatase activators, dose response, biochemical, luminescence, uHTS hits (AID 488783); assay type: functional
Intestinal-type alkaline phosphatase (Mus musculus, UniProt P24822), sequence (P24822 whole entry): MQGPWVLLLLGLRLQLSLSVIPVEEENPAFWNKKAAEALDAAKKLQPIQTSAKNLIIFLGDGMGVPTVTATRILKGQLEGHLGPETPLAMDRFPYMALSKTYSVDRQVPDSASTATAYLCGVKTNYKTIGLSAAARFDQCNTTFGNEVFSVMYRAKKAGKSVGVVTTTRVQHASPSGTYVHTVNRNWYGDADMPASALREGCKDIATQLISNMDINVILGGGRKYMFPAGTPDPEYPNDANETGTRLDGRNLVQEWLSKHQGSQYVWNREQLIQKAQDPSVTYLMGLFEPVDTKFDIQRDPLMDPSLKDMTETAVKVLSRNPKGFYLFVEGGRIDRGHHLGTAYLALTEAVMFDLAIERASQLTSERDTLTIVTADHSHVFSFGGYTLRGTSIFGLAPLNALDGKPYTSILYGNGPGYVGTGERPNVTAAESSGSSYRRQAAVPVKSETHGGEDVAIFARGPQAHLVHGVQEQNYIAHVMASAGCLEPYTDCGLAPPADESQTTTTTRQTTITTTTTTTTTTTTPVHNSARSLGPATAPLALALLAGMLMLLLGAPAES

[9] = target: Lysine-specific demethylase 4A (Homo sapiens, UniProt O75164); assay: inhibition of JMJD2A H3K9me3 demethylation – biochemical, DELFIA europium, cherry-picked samples, selectivity assay for GASC-1 inhibitor project, dose response (AID 488840)
Lysine-specific demethylase 4A, sequence (O75164 whole entry): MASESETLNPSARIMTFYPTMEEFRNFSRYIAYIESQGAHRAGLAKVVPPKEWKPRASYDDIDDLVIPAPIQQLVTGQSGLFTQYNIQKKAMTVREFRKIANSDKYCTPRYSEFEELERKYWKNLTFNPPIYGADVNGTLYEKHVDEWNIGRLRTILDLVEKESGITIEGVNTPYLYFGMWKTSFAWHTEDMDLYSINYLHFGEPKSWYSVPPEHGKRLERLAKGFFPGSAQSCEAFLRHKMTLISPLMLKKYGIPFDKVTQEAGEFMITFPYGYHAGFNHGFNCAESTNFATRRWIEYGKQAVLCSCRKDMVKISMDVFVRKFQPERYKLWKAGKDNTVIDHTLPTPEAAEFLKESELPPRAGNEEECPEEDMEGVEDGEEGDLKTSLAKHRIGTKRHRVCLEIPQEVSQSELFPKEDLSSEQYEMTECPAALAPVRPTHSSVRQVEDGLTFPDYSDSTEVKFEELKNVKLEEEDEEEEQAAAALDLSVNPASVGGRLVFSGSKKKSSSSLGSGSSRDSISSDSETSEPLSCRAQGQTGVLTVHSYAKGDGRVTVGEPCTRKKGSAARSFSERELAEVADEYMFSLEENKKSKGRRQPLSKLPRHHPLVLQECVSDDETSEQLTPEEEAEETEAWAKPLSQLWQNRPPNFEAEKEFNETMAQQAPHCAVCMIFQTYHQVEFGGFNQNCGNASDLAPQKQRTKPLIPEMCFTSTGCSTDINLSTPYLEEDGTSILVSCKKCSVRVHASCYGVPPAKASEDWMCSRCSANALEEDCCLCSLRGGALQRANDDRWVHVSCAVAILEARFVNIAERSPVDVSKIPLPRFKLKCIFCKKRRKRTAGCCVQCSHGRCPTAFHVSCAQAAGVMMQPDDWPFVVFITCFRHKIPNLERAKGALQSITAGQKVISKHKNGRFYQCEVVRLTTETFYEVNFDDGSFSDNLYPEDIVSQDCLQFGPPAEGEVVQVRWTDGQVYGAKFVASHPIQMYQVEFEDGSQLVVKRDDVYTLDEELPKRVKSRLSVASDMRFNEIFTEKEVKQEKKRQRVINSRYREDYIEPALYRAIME

[10] = target: Lysine-specific demethylase 4C (Homo sapiens, UniProt Q9H3R0); assay: inhibition of JMJD2C H3K9me3 demethylation – biochemical, DELFIA europium, cherry-picked samples, dose response (AID 488835); assay type: functional
CAAX prenyl protease 2 = target: T3, CAAX prenyl protease 2 (Saccharomyces cerevisiae S288c, UniProt Q03530); assay type: biochemical
T3 sequence (Q03530 whole entry): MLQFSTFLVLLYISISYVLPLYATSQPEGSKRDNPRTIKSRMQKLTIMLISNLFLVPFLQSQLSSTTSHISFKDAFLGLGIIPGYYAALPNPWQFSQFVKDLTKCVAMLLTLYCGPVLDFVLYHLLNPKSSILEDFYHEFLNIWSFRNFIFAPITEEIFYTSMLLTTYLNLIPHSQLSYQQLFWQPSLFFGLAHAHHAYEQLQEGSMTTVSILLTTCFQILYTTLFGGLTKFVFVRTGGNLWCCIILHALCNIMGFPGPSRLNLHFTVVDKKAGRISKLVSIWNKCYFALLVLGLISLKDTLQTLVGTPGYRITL

Trypsin = Trypsin (Sus scrofa, UniProt P00761); assay: trypsin protease activity blockade – biochemical, quenched peptide fluorescence, cherry-pick, selectivity assay for Rce1 protease inhibitor project, dose response (AID 488789)
Trypsin, sequence (P00761 whole entry): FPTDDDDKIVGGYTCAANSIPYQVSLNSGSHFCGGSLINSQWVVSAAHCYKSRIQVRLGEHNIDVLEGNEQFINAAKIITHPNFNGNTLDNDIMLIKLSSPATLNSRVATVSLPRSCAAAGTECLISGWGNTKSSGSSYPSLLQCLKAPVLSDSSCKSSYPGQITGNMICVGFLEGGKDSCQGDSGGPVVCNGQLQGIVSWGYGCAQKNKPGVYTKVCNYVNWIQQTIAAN

CAAX prenyl protease 1 = CAAX prenyl protease 1 (Saccharomyces cerevisiae S288c, UniProt P47154); assay: yeast CAAX protease Ste24 inhibition – biochemical, S. cerevisiae, plate reader, cherry-pick, dose response (AID 488815)
CAAX prenyl protease 1, sequence (P47154 whole entry): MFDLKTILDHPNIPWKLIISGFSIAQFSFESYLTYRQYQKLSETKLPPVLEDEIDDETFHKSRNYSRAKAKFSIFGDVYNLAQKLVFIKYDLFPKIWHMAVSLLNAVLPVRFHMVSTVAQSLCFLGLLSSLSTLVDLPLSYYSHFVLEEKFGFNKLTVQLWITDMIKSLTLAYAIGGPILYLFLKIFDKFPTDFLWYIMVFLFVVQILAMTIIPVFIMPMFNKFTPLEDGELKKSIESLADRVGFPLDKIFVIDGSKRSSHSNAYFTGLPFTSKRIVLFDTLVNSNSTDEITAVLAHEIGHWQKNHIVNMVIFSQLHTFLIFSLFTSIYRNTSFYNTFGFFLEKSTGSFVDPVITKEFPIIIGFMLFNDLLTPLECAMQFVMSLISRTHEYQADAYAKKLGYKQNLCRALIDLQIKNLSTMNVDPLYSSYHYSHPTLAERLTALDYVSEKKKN

[11] = target: T4, Tyrosine-protein phosphatase non-receptor type 22 (Homo sapiens, UniProt Q9Y2R2); assay type: functional
T4 sequence (Q9Y2R2 whole entry): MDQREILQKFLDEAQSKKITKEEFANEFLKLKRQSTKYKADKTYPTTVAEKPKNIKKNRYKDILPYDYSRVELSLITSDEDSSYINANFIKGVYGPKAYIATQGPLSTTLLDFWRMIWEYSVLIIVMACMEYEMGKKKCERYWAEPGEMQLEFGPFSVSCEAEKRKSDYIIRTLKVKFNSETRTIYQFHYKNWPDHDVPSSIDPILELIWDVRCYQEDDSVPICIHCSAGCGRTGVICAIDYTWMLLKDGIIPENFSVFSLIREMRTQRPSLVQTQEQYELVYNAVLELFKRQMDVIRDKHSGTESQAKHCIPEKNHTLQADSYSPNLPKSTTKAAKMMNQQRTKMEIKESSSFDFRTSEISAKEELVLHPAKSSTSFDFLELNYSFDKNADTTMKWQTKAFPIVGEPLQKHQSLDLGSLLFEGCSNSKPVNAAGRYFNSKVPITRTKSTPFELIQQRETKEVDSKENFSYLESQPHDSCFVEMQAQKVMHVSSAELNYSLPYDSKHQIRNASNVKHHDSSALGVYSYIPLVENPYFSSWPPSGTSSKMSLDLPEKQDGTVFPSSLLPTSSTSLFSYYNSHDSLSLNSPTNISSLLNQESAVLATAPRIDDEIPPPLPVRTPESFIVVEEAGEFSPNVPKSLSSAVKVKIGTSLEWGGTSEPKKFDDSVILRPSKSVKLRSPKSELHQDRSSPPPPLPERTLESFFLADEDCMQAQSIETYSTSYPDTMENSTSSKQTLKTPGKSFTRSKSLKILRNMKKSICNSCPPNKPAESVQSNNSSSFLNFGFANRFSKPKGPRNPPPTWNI

[12] = target: T5, Heat shock factor protein 1 (Mus musculus, UniProt P38532); assay: enhancement of HSF1-driven luciferase signal – cell-based, NIH3T3, luminescence, dose retest, confirmation (AID 435004); assay type: functional;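 note: stress induced by proteasome inhibitor MG132 added 30 min after compound; luciferase reporter driven by HSF1 response element in NIH3T3 cells; actives raise luminescence as potentiators of the MG132 stress response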
T5 sequence (P38532 whole entry): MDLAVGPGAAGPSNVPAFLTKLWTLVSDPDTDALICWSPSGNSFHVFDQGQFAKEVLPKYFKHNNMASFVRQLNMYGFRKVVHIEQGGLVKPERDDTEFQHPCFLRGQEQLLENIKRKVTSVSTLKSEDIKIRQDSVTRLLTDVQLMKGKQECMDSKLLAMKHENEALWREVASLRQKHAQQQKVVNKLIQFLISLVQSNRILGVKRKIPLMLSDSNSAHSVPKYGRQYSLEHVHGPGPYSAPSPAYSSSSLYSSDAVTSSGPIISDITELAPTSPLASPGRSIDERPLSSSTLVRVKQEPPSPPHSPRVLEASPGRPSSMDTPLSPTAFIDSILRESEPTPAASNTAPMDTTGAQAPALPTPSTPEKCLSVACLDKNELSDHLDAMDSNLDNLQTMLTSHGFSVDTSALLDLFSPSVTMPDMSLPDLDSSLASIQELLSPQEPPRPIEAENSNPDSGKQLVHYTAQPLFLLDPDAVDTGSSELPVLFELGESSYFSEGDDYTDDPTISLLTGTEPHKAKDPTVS

[13] = target: T4, Tyrosine-protein phosphatase non-receptor type 22; assay type: functional; remark: listed apart in the source
[14] = target: T6, Tyrosine-protein phosphatase non-receptor type 7 (Homo sapiens, UniProt P35236); assay type: functional
T6 sequence (P35236 whole entry): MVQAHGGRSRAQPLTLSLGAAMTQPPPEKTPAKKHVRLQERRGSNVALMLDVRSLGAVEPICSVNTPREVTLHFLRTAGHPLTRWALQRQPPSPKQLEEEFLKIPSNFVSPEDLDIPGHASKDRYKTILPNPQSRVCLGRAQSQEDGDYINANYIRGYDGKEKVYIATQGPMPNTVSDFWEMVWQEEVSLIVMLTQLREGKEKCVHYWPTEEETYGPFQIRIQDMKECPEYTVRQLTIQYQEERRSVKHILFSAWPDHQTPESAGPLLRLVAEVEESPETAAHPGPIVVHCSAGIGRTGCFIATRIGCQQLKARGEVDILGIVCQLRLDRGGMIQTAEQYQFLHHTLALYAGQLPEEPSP

UDP-galactopyranose mutase, sequence (P9WIQ1 whole entry): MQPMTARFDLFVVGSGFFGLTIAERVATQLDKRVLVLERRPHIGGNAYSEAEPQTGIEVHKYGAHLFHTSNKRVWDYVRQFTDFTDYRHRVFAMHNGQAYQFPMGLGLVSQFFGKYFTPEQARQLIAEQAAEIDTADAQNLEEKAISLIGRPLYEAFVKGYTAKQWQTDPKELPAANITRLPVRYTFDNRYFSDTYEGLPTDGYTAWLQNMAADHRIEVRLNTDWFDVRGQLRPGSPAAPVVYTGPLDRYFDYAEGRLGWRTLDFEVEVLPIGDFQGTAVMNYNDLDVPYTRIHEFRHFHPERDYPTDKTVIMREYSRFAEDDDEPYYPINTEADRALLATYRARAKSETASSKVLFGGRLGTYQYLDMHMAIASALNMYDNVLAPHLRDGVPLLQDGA

## CCCCCCN1C=CC=C/C1=C\C=C(C#N)C#N
[1]
  AC50: 44.1 µM (active)

## Cc1cc(/C=C2\SC(=S)NC2=O)c(C)[nH]1
[2]
  IC50: 26.5 µM (active)
[3]
  IC50: 207 µM (active)
[4]
  EC50: 68 µM (active)
[5]
  EC50: > 100 µM (active)
[6]
  IC50: 20.4 µM (active)
[7]
  EC50: 58.1 µM (active)
Prothrombin
  IC50: 33 µM (active)
[8]
  EC50: 56.6 µM (active)

## CCC(Sc1nc(N)c(NC(=O)c2ccc(Br)o2)c(O)n1)C(=O)O (stereo not drawn)
[9]
  AC50: 17.5 µM (active)
[10]
  AC50: 5.06 µM (active)

## Cc1cc(C)n2cc(CSc3ncccc3C(=O)O)nc2n1
CAAX prenyl protease 2
  AC50: 57.7 µM (active)
Trypsin
  AC50: 10.8 µM (active)
CAAX prenyl protease 1
  AC50: 6.59 µM (active)

## O=C(CC1C(=O)N(Cc2ccccc2)C(=S)N1CCN1CCOCC1)Nc1ccc(F)cc1 (stereo not drawn)
[11]
  IC50: > 79.4 µM (inactive)
[12]
  EC50: > 260 µM (inactive)
[13]
  IC50: > 79.4 µM (inactive)
[14]
  IC50: > 79.4 µM (inactive)

— ChEMBL document CHEMBL1201862, “PubChem BioAssay data set” (2004)
